Measurements taken from PubChem BioAssay AID1194 (EPA DSSTox, 2008).
Active and inactive are the calls of the source.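 How the source made its calls: active means chemicals rated mutagenic or weakly mutagenic in the Salmonella bacterial test by one literature review, or positive overall by another; inconclusive means no clear call, values can overlap the other calls; inactive means the rest.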

The molecules below were run on Salmonella typhimurium Ames mutagenicity, literature compiled (assay: DSSTox (CPDBAS) Carcinogenic Potency Database Salmonella Mutagenicity).
Text: The Carcinogenic Potency Database (CPDB) is a unique and widely used international resource of the results of over 6500 chronic, long-term animal cancer tests on over 1500 chemical substances. The CPDB provides easy access to the bioassay literature, with qualitative and quantitative analyses of both positive and negative experiments that have been published over the past 50 years in the general literature and by the National Cancer Institute/National Toxicology Program. The CPDB standardizes the diverse literature of cancer bioassays that vary widely in protocol, histopathological examination and nomenclature, and in the published author's choices of what information to provide in their papers. Results are reported in the CPDB for tests in rats, mice, hamsters, dogs, and nonhuman primates, and are based on the most positive result among all experiments for each sex-species. The DSSTox CPDBAS (all species) file incorporates data from the CPDB Summary Tables for the full list of over 1500 chemical substances tested in at least one species.
A chemical is classified within the CPDB as mutagenic, i.e. "active", in the Salmonella assay if it was evaluated overall as either "mutagenic" or "weakly mutagenic" by Zeiger [Zeiger, E. (1997) Genotoxicity Database. In: Gold and Zeiger, Eds. Handbook of Carcinogenic Potency and Genotoxicity Databases. Boca Raton, FL: CRC Press, pp. 687-729. http://potency.berkeley.edu/CRCbook.html] or as overall "positive" by the EPA Gene-Tox Program [Kier et al. (1986) Mutat. Res. 168: 69-240].

Structure (SMILES) | outcome
N[C@@H](Cc1c[nH]c2ccccc12)C(=O)O | inactive; active
Nc1cccc(N)c1 | active
Nc1ccccc1-c1ccccc1 | active
C=CC(O)c1ccc2c(c1)OCO2 (stereo unspecified) | inactive
CCCCN(N=O)C(=N)N[N+](=O)[O-] | active
Oc1cccc(O)c1 | inactive
Brc1c(Br)c(Br)c(Oc2c(Br)c(Br)c(Br)c(Br)c2Br)c(Br)c1Br | inactive; active
COc1ccc(N)c(OC)c1 | active; inactive
CCOC(=O)C1OC1(C)c1ccccc1 (stereo unspecified) | inactive; active
CC(=O)Nc1nc(NC(C)=O)nc(-c2ccc([N+](=O)[O-])o2)n1 | active; inactive
CN(C)CCOC(C)(c1ccccc1)c1ccccn1 (stereo unspecified) | inactive
Oc1ccc2ccccc2c1N=Nc1ccccc1 | active; inactive
ClC1=C(Cl)[C@]2(Cl)[C@@H]3[C@@H]4C[C@@H]([C@H]5O[C@@H]45)[C@@H]3[C@@]1(Cl)C2(Cl)Cl | inactive; active
C[N+](C)(C)CCCl | inactive; active
Cc1cc(O)c(C)c2c1OC(C)(CCCC(C)CCCC(C)CCCC(C)C)CC2 (stereo unspecified) | inactive; active
Cn1cc[nH]c1=S | inactive; active
CS(=O)(=O)OCCCCOS(C)(=O)=O | active
CCCCCCCCCCCCCCCC(=O)OC/C=C(C)/C=C/C=C(C)/C=C/C1=C(C)CCCC1(C)C | inactive; active
[O]=[Mo](=[O])=[O] | inactive; active
CC(=O)Nc1nc(-c2ccc([N+](=O)[O-])o2)cs1 | active; inactive
c1ccc(Nc2ccc(Nc3ccccc3)cc2)cc1 | active; inactive
CC(Cl)CCl (stereo unspecified) | active; inactive
O=NN1CCSCC1 | active; inactive

Structure (SMILES) | outcome
O=NN1CCCCCCC1 | active; inactive
C=CCCl | active; inactive
Nc1ccc(N=Nc2ccccc2)c(N)n1 | inactive
CCCCC(CC)COP(=O)(OCC(CC)CCCC)OCC(CC)CCCC (stereo unspecified) | inactive; active
OC[C@@H](O)[C@@H](O)[C@H](O)[C@H](O)CO | inactive; active
OCCOCCO | inactive; active
ClCC(Cl)(Cl)Cl | inactive; active
CCCCOC(=O)COc1ccc(Cl)cc1Cl | inactive; active
CCCC(Cl)CCC(Cl)CCC(Cl)CCC(Cl)CCC(Cl)CCC(Cl)CCC(C)Cl (stereo unspecified) | inactive
O=C(CCl)c1ccccc1 | inactive
CN(C)C(=O)Cl | active
S=C(NC1CCCCC1)NC1CCCCC1 | inactive; active
Cc1cccc(C)c1N | active
CC1CN(/N=C/c2ccc([N+](=O)[O-])o2)C(=O)N1 (stereo unspecified) | active; inactive
O.O=S(=O)([O-])[O-].[Mn+2] | inactive; active
CCC[N+](=O)[O-] | inactive; active
C=CBr | active; inactive
CCC(C)c1cc([N+](=O)[O-])cc([N+](=O)[O-])c1O (stereo unspecified) | inactive
Nc1ccc(S(=O)(=O)c2ccc(N)cc2)cc1 | inactive; active
O=C(O)C(Cl)(Cl)Cl | inactive
CNC(=S)N(C)C | inactive; active
CCN(Cc1cccc(S(=O)(=O)O)c1)c1ccc(C(=C2C=CC(=[N+](CC)Cc3cccc(S(=O)(=O)O)c3)C=C2)c2ccc(O)cc2S(=O)(=O)[O-])cc1 | inactive; active
Cc1cc(O)c2c(c1O)C(=O)C13C(=C2O)C(=O)C2C(O)C1C1C(O)C3C(=O)C3=C(O)c4c(O)cc(C)c(O)c4C(=O)C321 (stereo unspecified) | inactive; active

Structure (SMILES) | outcome
c1ccc2c(c1)[nH]c1cnccc12 | active
O=Nc1ccc(Nc2ccccc2)cc1 | active
ClC(Cl)Cl | inactive
Oc1ccc(O)cc1 | inactive
CC(=O)OC[C@]12C[C@H](OC(=O)CC(C)C)C(C)=C[C@H]1O[C@@H]1[C@H](O)[C@@H](OC(C)=O)[C@@]2(C)C12CO2 (stereo partly specified) | inactive
O=NN(CCCl)C(=O)N[C@@H]1[C@@H](O)[C@H](O)[C@@H](CO)O[C@@H]1O | active; inactive
CC(=O)NNc1ccccc1 | active
Cc1cccn2c1nc1ccc(N)nc12 | active
CCOC(=O)CC(SP(=O)(OC)OC)C(=O)OCC (stereo unspecified) | inactive
C#C[C@]1(O)CC[C@H]2[C@@H]3CCc4cc(OC)ccc4[C@H]3CC[C@@]21C | inactive
C[C@@H]1O[C@@H](OC[C@H]2O[C@@H](Oc3c(-c4ccc(O)c(O)c4)oc4cc(O)cc(O)c4c3=O)[C@H](O)[C@@H](O)[C@@H]2O)[C@H](O)[C@H](O)[C@H]1O | active; inactive
O=C(O)COc1cc(Cl)c(Cl)cc1Cl | inactive; active
NC(=O)CCCCC(N)=O | inactive
Nc1ccc([N+](=O)[O-])cc1N | active
O=S1(=O)CCCO1 | active; inactive
O=C1CCO1 | active
C[N+](=O)[O-] | inactive; active
CN(C)C(=S)[S][Pb][S]C(=S)N(C)C | active
O=P(OC(CCl)CCl)(OC(CCl)CCl)OC(CCl)CCl | active
Cc1nc(N)cc2[nH]c3ccccc3c12 | active
CCC1(c2ccccc2)C(=O)N=C(O)NC1=O (stereo unspecified) | inactive
CC(C)Oc1ccccc1OC(=O)N(C)N=O | active
O=NN1CCN(N=O)CC1 | active; inactive

Structure (SMILES) | outcome
COc1ccc(C(=O)/C(Br)=C\C(=O)O)cc1 | active
CC12CCC(CC1)C(C)(C)O2 | inactive; active
O=NN1CCCC1 | active
O=Cc1ccco1 | active; inactive
Cn1c(N)nc2ncc(-c3ccccc3)cc21 | active
Oc1cccc2cccnc12 | active; inactive
FC(F)(F)CCl | inactive
OCCN(CCO)CCO | inactive; active
S=C([S-])NCCNC(=S)[S-].[Zn+2] | inactive; active
Cc1ccc(S(=O)(=O)NC(=O)NN2CCCCCC2)cc1 | inactive; active
Nc1c(Cl)cc(Cl)cc1Cl | inactive; active
CCCCCCCCCCCCN(C)N=O | active
CN(C)c1ccc(C(=O)c2ccc(N(C)C)cc2)cc1 | active; inactive
COC(=O)[C@H]1[C@H]2C[C@@H]3c4[nH]c5cc(OC)ccc5c4CCN3C[C@H]2C[C@@H](OC(=O)c2cc(OC)c(OC)c(OC)c2)[C@@H]1OC | inactive
O=CNNc1nc(-c2ccc([N+](=O)[O-])o2)cs1 | active; inactive
C=CC(=O)O | inactive
C1COCCO1 | inactive; inconclusive
C#C[C@]1(O)CC[C@H]2[C@@H]3CCC4=C(CCC(=O)C4)[C@H]3CC[C@@]21C | inactive; active
CN(C)C(=S)SSC(=S)N(C)C | active
CCCCNC(=O)NS(=O)(=O)c1ccc(C)cc1 | inactive; active
O=C(O)CCCc1ccc(N(CCCl)CCCl)cc1 | active; inactive
C[C@]12C=CC(=O)C=C1CC[C@@H]1[C@@H]2C(=O)C[C@@]2(C)[C@H]1CC[C@]2(O)C(=O)CO | active
